Measurements from US20040224981A1, “Antibacterial methods and compositions” (priority 2003, published 2004).
Like-named read-outs stand apart in the source and are kept apart here.

Key:
[1] = tested on: E. faecalis; assay: MIC against E. faecalis; type: cell-based
Experimental: (§1) The MRS inhibitor 4 alone and in combination with mupirocin (mupirocin salt and 1:1 combination) were tested against a collection of Gram-positive pathogens.
MRSi compound 5 alone and in combination with mupirocin was tested recent clinical isolates of E. faecalis (n=28) and E. faecium (n=23). Both the acetate salt and mupirocinate salts of MRSi compound 5 maintained potent activity against vancomycin-susceptible and—resistant enterococci (Tables 8, 9, and 10).

[2] = tested on: S. aureus; assay: MIC against S. aureus strains and clinical isolates (broth microdilution); type: cell-based, Staphylococcus aureus
Experimental: were tested against a collection of clinical isolates of S. aureus including strains that were multi-resistant to mupirocin and to other agents such as gentamicin and oxacillin.
The acetate and mupirocin salts of the MRS inhibitor compound 5 were tested against a collection of both low and high-level mupirocin resistant clinical isolates of S. aureus (Table 6).
The bacterial strains were tested for susceptibility to mupirocin and MRSi compound 2 using the broth microdilution method in accordance with NCCLS guideline to determine their MICs.
Briefly, the MIC and checkerboard titration assays were performed with strains in microtiter trays with cation-supplemented Mueller-Hinton broth (Difco). Inocula were prepared by suspending growth from blood agar plates in sterile saline to a density equivalent to that of a 0.5 McFarland standard and were diluted […] to produce a final inoculum of 5×10^5 CFU/ml. The trays were incubated aerobically overnight. Standard quality control strains were included with each run. Fractional inhibitory concentrations (FICs) were calculated as the MIC of drug A or B in combination/MIC of drug A or B alone, and the FIC index was obtained by adding the two FICs. FIC indices were interpreted as synergistic if the values were ≦0.5, additive or indifferent if the values were >0.5 to 4, and antagonistic if the values were >4.0.

[3] = tested on: S. epidermidis; assay: MIC against S. epidermidis; type: cell-based
Experimental: as §1
(§2) The MRS inhibitor 8 was also prepared as a fusidate and mupirocinate salt and tested for antibacterial activity against Gram-positive bacteria (Table 3). […] MRSi compound 8 alone and the fusidate and mupirocin salts were active against mupirocin-resistant S. aureus and S. epidermidis and organisms such as E. faecalis that are not susceptible to mupirocin.
(§3) The MRS inhibitor 5 acetate and mupirocin salts were tested against a collection of Gram-positive bacteria.

[4] = tested on: S. pyogenes; assay: MIC against S. pyogenes; type: cell-based, Streptococcus pyogenes
Experimental: as §1
S. pyogenes is also a significant skin pathogen and 48 recent clinical isolates were tested for their susceptibility to MRSi compound 5 alone (acetate) and in combination (1:1) with mupirocin (mupirocinate).

[5] = tested on: S. hemolyticus; assay: MIC against S. hemolyticus; type: cell-based
Experimental: as §1, §2, §3

[6] = Table 3, E. faecalis ATCC 29212
[7] = Table 3, S. aureus ATCC 43300 (ORSA)
[8] = Table 3, S. aureus NRS107 (mupA)
[9] = Table 3, S. pyogenes ATCC 19615
[10] = Table 3, S. pyogenes MB143 (macrolide rest.)

Structure (SMILES): Cc1c(CNCCCNc2cc(=O)c3ccccc3[nH]2)sc(Br)c1Br [MRSI Cmpd 4 acetate, N-(4,5-Dibromo-3-methylthiophen-2-ylmethyl)-N′-(1H-quinolin-4-one)propane-1,3-diamine]
- MIC ([1]; Enterococcus faecalis, ATCC29212, Table 2, E. faecalis ATCC 29212, read-out: MIC): ≤ 0.008 mg/L
- MIC ([1]; Enterococcus faecalis, Table 2, E. faecalis 1, read-out: MIC): 0.015 mg/L
- MIC ([1]; Enterococcus faecalis, Table 2, E. faecalis 7, read-out: MIC): ≤ 0.008 mg/L
- MIC ([2]; Staphylococcus aureus, ATCC29213, Table 2, S. aureus ATCC 29213, read-out: MIC): 0.25 mg/L
- MIC ([2]; Staphylococcus aureus, ATCC43300, Table 2, S. aureus ATCC 43300 (ORSA), read-out: MIC): 0.25 mg/L
- MIC ([2]; Staphylococcus aureus, NRS107, Table 2, S. aureus NRS107 (mupA), read-out: MIC): 0.03 mg/L
- MIC ([2]; Staphylococcus aureus, Table 2, S. aureus Oxford, read-out: MIC): 0.03 mg/L
- MIC ([3]; Staphylococcus epidermidis, Table 2, S. epidermidis NRS6, read-out: MIC): 0.5 mg/L
- MIC ([3]; Staphylococcus epidermidis, Table 2, S. epidermidis NRS7, read-out: MIC): 0.03 mg/L
- MIC ([3]; Staphylococcus epidermidis, Table 2, S. epidermidis NRS8, read-out: MIC): 0.25 mg/L
- MIC ([4]; Streptococcus pyogenes, ATCC19615, Table 2, S. pyogenes ATCC 19615, read-out: MIC): 0.25 mg/L
- MIC ([4]; Streptococcus pyogenes, Table 2, S. pyogenes MB143 (macrolide rest.), read-out: MIC): 0.12 mg/L
- MIC ([5]; Table 2, S. hemolyticus NRS50, read-out: MIC): 0.25 mg/L
- MIC ([5]; Table 2, S. hemolyticus NRS116, read-out: MIC): 0.5 mg/L

Structure (SMILES): Clc1cc(Cl)c2c(Cl)c(CNCCCNc3nc4ncccc4[nH]3)[nH]c2c1 [MRSi Cmpd 8 acetate, N-(1H-imidazo[4,5-b]pyridin-2-yl)-N′-(3,4,6-trichloro-1H-indol-2-ylmethyl)—propane-1,3-diamine]
- MIC ([1]; Enterococcus faecalis, ATCC29212, Table 3, E. faecalis ATCC 29212, read-out: MIC): 0.03 mg/L
- MIC ([1]; Enterococcus faecalis, Table 3, E. faecalis 1, read-out: MIC): 0.03 mg/L
- MIC ([1]; Enterococcus faecalis, Table 3, E. faecalis 7, read-out: MIC): 0.03 mg/L
- MIC ([2]; Staphylococcus aureus, ATCC29213, Table 3, S. aureus ATCC 29213, read-out: MIC): 0.06 mg/L
- MIC ([2]; Staphylococcus aureus, ATCC43300, Table 3, S. aureus ATCC 43300 (ORSA), read-out: MIC): 0.03 mg/L
- MIC ([2]; Staphylococcus aureus, NRS107, Table 3, S. aureus NRS107 (mupA), read-out: MIC): 0.03 mg/L
- MIC ([2]; Staphylococcus aureus, Table 3, S. aureus Oxford, read-out: MIC): 0.03 mg/L
- MIC ([3]; Staphylococcus epidermidis, Table 3, S. epidermidis NRS6, read-out: MIC): 0.12 mg/L
- MIC ([3]; Staphylococcus epidermidis, Table 3, S. epidermidis NRS7, read-out: MIC): 0.06 mg/L
- MIC ([3]; Staphylococcus epidermidis, Table 3, S. epidermidis NRS8, read-out: MIC): 0.12 mg/L
- MIC ([4]; Streptococcus pyogenes, ATCC19615, Table 3, S. pyogenes ATCC 19615, read-out: MIC): 0.12 mg/L
- MIC ([4]; Streptococcus pyogenes, Table 3, S. pyogenes MB143 (macrolide rest.), read-out: MIC): 0.12 mg/L
- MIC ([5]; Table 3, S. hemolyticus NRS50, read-out: MIC): 0.06 mg/L
- MIC ([5]; Table 3, S. hemolyticus NRS116, read-out: MIC): 0.12 mg/L

Structure (SMILES): CC(=O)O[C@H]1C[C@@]2(C)[C@@H](C[C@@H](O)[C@H]3[C@@]4(C)CC[C@@H](O)[C@@H](C)[C@@H]4CC[C@@]32C)/C1=C(\CCC=C(C)C)C(=O)O.Clc1cc(Cl)c2c(Cl)c(CNCCCNc3nc4ncccc4[nH]3)[nH]c2c1 [MRSi Cmpd 8 fusidate, N-(1H-IMIDAZO[4,5-B] PYRIDIN-2-YL)-N′-(3,4,6-TRICHLORO-1H-INDOL-2-YLMETHYL)-PROPANE-1,3-DIAMINE FUSIDATE]
- MIC ([1]; Table 3, E. faecalis 1): 0.06 mg/L
- MIC ([1]; Table 3, E. faecalis 7): 0.12 mg/L
- MIC [1, 6]: 0.12 mg/L
- MIC ([2]; Table 3, S. aureus ATCC 29213): 0.12 mg/L
- MIC [2, 7]: 0.06 mg/L
- MIC [2, 8]: 0.06 mg/L
- MIC ([2]; Table 3, S. aureus Oxford): 0.06 mg/L
- MIC ([3]; Table 3, S. epidermidis NRS6): 0.25 mg/L
- MIC ([3]; Table 3, S. epidermidis NRS7): 0.12 mg/L
- MIC ([3]; Table 3, S. epidermidis NRS8): 0.25 mg/L
- MIC [4, 9]: 0.5 mg/L
- MIC [4, 10]: 0.5 mg/L
- MIC ([5]; Table 3, S. hemolyticus NRS50): 0.12 mg/L
- MIC ([5]; Table 3, S. hemolyticus NRS116): 0.25 mg/L

Structure (SMILES): CC(=CC(=O)OCCCCCCCCC(=O)O)CC1OCC(CC2OC2C(C)C(C)O)C(O)C1O.Cc1c(CNCCCNc2cc(=O)c3ccccc3[nH]2)sc(Br)c1Br (stereo not shown) [MRSi Cmpd 4 mupirocinate, N-(4,5-DIBROMO-3-METHYLTHIOPHEN-2-YLMETHYL)-N′-(1H-QUINOLIN-4-ONE)PROPANE-1,3-DIAMINE MUPIROCINATE]
- MIC ([1]; Table 2, E. faecalis 1): 0.12 mg/L
- MIC ([1]; Table 2, E. faecalis 7): 0.12 mg/L
- MIC ([1]; Table 2, E. faecalis ATCC 29212): 0.06 mg/L
- MIC ([2]; Table 2, S. aureus ATCC 29213): 0.5 mg/L
- MIC ([2]; Table 2, S. aureus ATCC 43300 (ORSA)): 0.5 mg/L
- MIC ([2]; Table 2, S. aureus NRS107 (mupA)): 0.25 mg/L
- MIC ([2]; Table 2, S. aureus Oxford): 0.25 mg/L
- MIC ([3]; Table 2, S. epidermidis NRS6): 1 mg/L
- MIC ([3]; Table 2, S. epidermidis NRS7): 0.25 mg/L
- MIC ([3]; Table 2, S. epidermidis NRS8): 1 mg/L
- MIC ([4]; Table 2, S. pyogenes ATCC 19615): 0.25 mg/L
- MIC ([4]; Table 2, S. pyogenes MB143 (macrolide rest.)): 0.25 mg/L
- MIC ([5]; Table 2, S. hemolyticus NRS50): 0.5 mg/L
- MIC ([5]; Table 2, S. hemolyticus NRS116): 0.5 mg/L

Structure (SMILES): CC(=CC(=O)OCCCCCCCCC(=O)O)CC1OCC(CC2OC2C(C)C(C)O)C(O)C1O.Clc1cc(Cl)c2c(Cl)c(CNCCCNc3nc4cccnc4[nH]3)[nH]c2c1 (stereo not shown) [MRSi Cmpd 8 mupirocinate, N-(1H-IMIDAZO [4,5-B]PYRIDIN-2-YL)-N′-(3,4,6-TRICHLORO-1H—INDOL-2-YLMETHYL)-PROPANE-1,3-DIAMINE MUPIROCINATE]
- MIC ([1]; Table 3, E. faecalis 1): 0.06 mg/L
- MIC ([1]; Table 3, E. faecalis 7): 0.12 mg/L
- MIC [1, 6]: 0.12 mg/L
- MIC ([2]; Table 3, S. aureus ATCC 29213): 0.12 mg/L
- MIC [2, 7]: 0.12 mg/L
- MIC [2, 8]: 0.12 mg/L
- MIC ([2]; Table 3, S. aureus Oxford): 0.12 mg/L
- MIC ([3]; Table 3, S. epidermidis NRS6): 0.5 mg/L
- MIC ([3]; Table 3, S. epidermidis NRS7): 0.12 mg/L
- MIC ([3]; Table 3, S. epidermidis NRS8): 0.25 mg/L
- MIC [4, 9]: 0.25 mg/L
- MIC [4, 10]: 0.12 mg/L
- MIC ([5]; Table 3, S. hemolyticus NRS50): 0.12 mg/L
- MIC ([5]; Table 3, S. hemolyticus NRS116): 0.25 mg/L
